Experimental data: patent US8450308B2 (Vitae Pharmaceuticals, Inc., priority 2008, dated 2013)
Like-named read-outs stand apart in the source and are kept apart here.

Molecular target: T1, truncated human beta-secretase (residues 1-458, His6-tagged at the C-terminus) (Homo sapiens, UniProt P56817)
T1 construct: truncated human beta-secretase (residues 1-458, His6-tagged at the C-terminus); His6 (C); made in house; host or cells: insect cells D. melanogaster S2 (baculovirus expression system (so in the source))
T1 sequence (P56817 22-458): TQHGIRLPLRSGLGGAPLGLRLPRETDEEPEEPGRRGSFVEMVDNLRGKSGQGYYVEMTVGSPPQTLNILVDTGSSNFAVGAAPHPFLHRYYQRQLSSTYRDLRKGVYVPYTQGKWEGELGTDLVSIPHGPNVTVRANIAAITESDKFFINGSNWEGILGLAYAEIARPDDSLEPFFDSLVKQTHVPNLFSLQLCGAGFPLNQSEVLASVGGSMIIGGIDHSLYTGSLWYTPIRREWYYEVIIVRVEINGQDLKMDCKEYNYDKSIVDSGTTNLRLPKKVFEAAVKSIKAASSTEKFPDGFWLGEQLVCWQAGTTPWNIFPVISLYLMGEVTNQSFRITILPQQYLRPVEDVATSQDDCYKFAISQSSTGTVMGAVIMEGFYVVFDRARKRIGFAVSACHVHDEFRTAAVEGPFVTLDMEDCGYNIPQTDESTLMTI
Test: BACE fluorescence quench assay
Type: biochemical

[1] = in vitro enzyme activity, BACE fluorescence assay, pH 4.5, read-out: IC50

| Compound | IC50 [1] [nM] | IC50 [nM] |
| --- | --- | --- |
| CN1C(=O)[C@@]2(C[C@@]3(CCCOC3)Oc3ccc(-c4cc(F)cc(F)c4F)cc32)N=C1N [Compound 359] | 500 to 1000 |  |
| CN1OC2(C[C@H]([C@H]3CCOC(C)(C)C3)Oc3ccc(-c4cc(F)ccc4F)cc32)N=C1N (some centres unmarked) [Compound 341] | 100 to 500 |  |
| CN1C(=O)C2(CC(c3ccccc3)Oc3ccc(-c4cccc(C(F)(F)F)c4)cc32)N=C1N (centres unmarked) [Compound 30, 2′-amino-1′-methyl-2-phenyl-6-(3-(trifluoromethyl)phenyl)spiro[chroman-4,4′-imidazol]-5′(1′H)-one] |  | 1000 to 5000 |
| CN1C(=O)C2(CC(c3ccccc3)Oc3ccc(-c4cccc(S(=O)(=O)N(C)C)c4)cc32)N=C1N (centres unmarked) [Compound 45, 3-(2′-amino-1′-methyl-5′-oxo-2-phenyl-1′,5′-dihydrospiro[chroman-4,4′-imidazole]-6-yl)-N,N-dimethylbenzenesulfonamide] |  | 5000 to 10000 |
| CN1C(=O)C2(CC3(CCCC3)Oc3ccc(-c4cccc(C#N)c4)cc32)N=C1N (centres unmarked) [Compound 79] | 500 to 1000 |  |
| CN1O[C@@]2(C[C@@]3(CCC(C(C)(C)C)C3)Oc3ccc(-c4cccc(C#N)c4)cc32)N=C1N (some centres unmarked) [Compound 127a] | 5000 to 10000 |  |
| CCCN1C(=O)[C@@]2(C[C@H](c3ccccc3)Oc3ccc(Br)cc32)N=C1N [Compound 57a, (2R,4S)-2′-amino-6-bromo-2-phenyl-1′-propylspiro[chroman-4,4′-imidazol]-5′(1′H)-one] | 10000 to 50000 |  |
| Cc1cccc(-c2ccc3c(c2)[C@]2(C[C@]4(CCCOC4)O3)N=C(N)N(C)C2=O)c1C [Compound 389] | 1000 to 5000 |  |
| Cc1cccc(-c2ccc3c(c2)[C@]2(C[C@@]4(CCCOC4)O3)N=C(N)N(C)C2=O)c1C [Compound 440] | 5000 to 10000 |  |
| CN1O[C@@]2(C[C@H]([C@@H]3CCCOC3)Oc3ccc(-c4cc(F)cc(F)c4)cc32)N=C1N (racemic) [Compound 326, (2S,4S/2R,4R)-6-(3,5-difluorophenyl)-2′-methyl-2-((S/R)-tetrahydro-2H-pyran-3-yl)-2′H-spiro[chroman-4,5′-[1,2,4]oxadiazol]-3′-amine] | 100 to 500 |  |
| CN1OC2(CC3(CCCOCC3)Oc3ccc(-c4cccc(C#N)c4)cc32)N=C1N (centres unmarked) [Compound 116] | 1000 to 5000 |  |
| CN1C(=O)[C@@]2(C[C@@]3(CCCOC3)Oc3ccc(-c4cc(F)cc(C#N)c4)cc32)N=C1N [Compound 356] | 500 to 1000 |  |
| COCc1ccc(-c2ccc3c(c2)C2(CC(c4ccccc4)O3)N=C(N)N(C)C2=O)cc1 (centres unmarked) [Compound 54, 2′-amino-6-(4-(methoxymethyl)phenyl)-1′-methyl-2-phenylspiro[chroman-4,4′-imidazol]-5′(1′H)-one] |  | 10000 to 50000 |
| CN1C(=O)C2(CC(c3ccccc3)Oc3ccc(-c4cccc(C5CC5)c4)cc32)N=C1N (centres unmarked) [Compound 11, 2′-amino-6-(3-cyclopropylphenyl)-1′-methyl-2-phenylspiro[chroman-4,4′-imidazol]-5′(1′H)-one] | 100 to 500 |  |
| CN1OC2(CC3(Cc4ccccc4C3)Oc3ccc(-c4cccc(C#N)c4)cc32)N=C1N (centres unmarked) [Compound 315] | 100 to 500 |  |
| CN1C(=O)[C@@]2(C[C@@]3(CCCOC3)Oc3ccc(-c4cc(Cl)cc(Cl)c4)cc32)N=C1N [Compound 281] | 100 to 500 |  |

| Compound | IC50 [1] [nM] | IC50 [nM] |
| --- | --- | --- |
| CN1C(=O)C2(CC3(CCCCC3)Oc3ccc(-c4cccc(C#N)c4)cc32)N=C1N (centres unmarked) [Compound 76] | 100 to 500 |  |
| CN1C(=O)[C@@]2(C[C@@]3(CCCOC3)Oc3ccc(-c4cccc(C(F)(F)F)c4)cc32)N=C1N [Compound 325] | 100 to 500 |  |
| CC(C)=CC(CCO)C1CC2(N=C(N)N(C)O2)c2cc(-c3cccc(C#N)c3)ccc2O1 (centres unmarked) [Compound 382] | 1000 to 5000 |  |
| CN1OC2(CC(C3COc4ccccc4C3)Oc3ccc(-c4cccc(C#N)c4)cc32)N=C1N (centres unmarked) [Compound 422] | 1000 to 5000 |  |
| CC(=O)NCc1cccc(-c2ccc3c(c2)C2(CC(c4ccccc4)O3)N=C(N)N(C)C2=O)c1 (centres unmarked) [Compound 43, N-(3-(2′-amino-1′-methyl-5′-oxo-2-phenyl-1′,5′-dihydrospiro[chroman-4,4′-imidazole]-6-yl)benzyl)acetamide] |  | 5000 to 10000 |
| CN1OC2(CC3(CCCN(c4ncccn4)C3)Oc3ccc(-c4cccc(C#N)c4)cc32)N=C1N (centres unmarked) [Compound 329] | 100 to 500 |  |
| CC(C)C1CCC2(C1)CC1(N=C(N)N(C)O1)c1cc(-c3cccc(C#N)c3)ccc1O2 (centres unmarked) [Compound 121] | 1000 to 5000 |  |
| CSc1cccc(-c2ccc3c(c2)[C@]2(C[C@]4(CCCOC4)O3)N=C(N)N(C)C2=O)c1 [Compound 296] | 100 to 500 |  |
| N#Cc1cccc(-c2ccc3c(c2)C2(CC(c4ccccc4)O3)N=C(N)N(CC3CCCCC3)C2=O)c1 (centres unmarked) [Compound 18, 3-(2′-amino-1′-(cyclohexylmethyl)-5′-oxo-2-phenyl-1′,5′-dihydrospiro[chroman-4,4′-imidazole]-6-yl)benzonitrile] | 500 to 1000 |  |
| CC(C)=CC(CCO)[C@H]1C[C@@]2(N=C(N)N(C)O2)c2cc(-c3cccc(C(F)(F)F)c3)ccc2O1 (some centres unmarked) [Compound 442] | 5000 to 10000 |  |
| CN1OC2(N=C1N)c1cc(-c3cccc(C#N)c3)ccc1OC1(CCCOC1)C2(F)F (centres unmarked) [Compound 112] | 500 to 1000 |  |
| CN1C(=O)C2(CC(c3ccccc3)Oc3ccc(-c4ccccc4)cc32)N=C1N (centres unmarked) [Compound 27, 2′-amino-1′-methyl-2,6-diphenylspiro-[chroman-4,4′-imidazol]-5′(1′H)-one] |  | 1000 to 5000 |
| COc1cccc(C2CC3(N=C(N)N(C)C3=O)c3cc(Br)ccc3O2)c1 (centres unmarked) [Compound 46, 2′-amino-6-bromo-2-(3-methoxyphenyl)-1′-methylspiro[chroman-4,4′-imidazol]-5′(1′H)-one] | 5000 to 10000 |  |
| CN1OC2(CC(C3CCCOC3)Oc3ccc(-c4cccc(C#N)c4)cc32)N=C1N (centres unmarked) [Compound 85, 3-(3′-amino-2′-methyl-2-(tetrahydro-2H-pyran-3-yl)-2′H-spiro[chroman-4,5′-[1,2,4]oxadiazole]-6-yl)benzonitrile] | 1 to 100 |  |
| CN1C(=O)C2(CC3(CCCC(C(F)(F)F)C3)Oc3ccc(-c4cccc(C#N)c4)cc32)N=C1N (centres unmarked) [Compound 81] | 1000 to 5000 |  |

Second part, led by results:

| IC50 [1] [nM] | Compound | IC50 [nM] |
| --- | --- | --- |
| 1000 to 5000 | CC(C)=CC(CCO)C1CC2(N=C(N)N(C)O2)c2cc(-c3cc(C#N)ccc3C)ccc2O1 (centres unmarked) [Compound 425] |  |
| 10000 to 50000 | CN1C(=O)C2(CC(C3CCOC(C)(C)C3)Oc3ccc(-c4cccc(F)c4)cc32)N=C1N (centres unmarked) [Compound 452] |  |
| 1000 to 5000 | CC(C)=C[C@H](CCO)[C@@H]1C[C@@]2(N=C(N)N(C)O2)c2cc(-c3cccc(C(F)(F)F)c3)ccc2O1 [Compound 423] |  |
| 10000 to 50000 | CC(C)=CC(CCO)[C@@H]1C[C@@]2(N=C(N)N(C)O2)c2cc(-c3cccc(C(F)(F)F)c3)ccc2O1 (some centres unmarked) [Compound 450] |  |
| 100 to 500 | CN1O[C@@]2(C[C@@H]([C@@H]3CCOC(C)(C)C3)Oc3ccc(-c4cccc(C#N)c4)cc32)N=C1N [Compound 285] |  |
| 1000 to 5000 | CN1C(=O)[C@@]2(C[C@]3(CCCOC3)Oc3ccc(-c4cccc(C#N)n4)cc32)N=C1N [Compound 410] |  |
| 5000 to 10000 | CN1OC2(CC(C3CCOC(C)(C)C3)Oc3ccc(-c4cccc(-n5cccc5)n4)cc32)N=C1N (centres unmarked) [Compound 445] |  |
| 100 to 500 | N#Cc1cccc(-c2ccc3c(c2)C2(CC(c4ccccc4)O3)N=C(N)N(CCC3CC3)C2=O)c1 (centres unmarked) [Compound 10] |  |
| 500 to 1000 | Cc1cccc(-c2ccc3c(c2)C2(CC(C4CCOC(C)(C)C4)O3)N=C(N)N(C)O2)c1F (centres unmarked) [Compound 363] |  |
| 100 to 500 | CN1C(=O)[C@@]2(C[C@@]3(CCCOC3)Oc3ccc(-c4cccc(Br)c4)cc32)N=C1N [Compound 336] |  |
| 100 to 500 | CN1OC2(CC(C3CCOCC3)Oc3ccc(-c4cccc(C#N)c4)cc32)N=C1N (centres unmarked) [Compound 88, 3-(3′-amino-2′-methyl-2-(tetrahydro-2H-pyran-4-yl)-2′H-spiro[chroman-4,5′-[1,2,4]-oxadiazole]-6-yl)benzonitrile] |  |
| 100 to 500 | COc1ccc(F)c(-c2ccc3c(c2)C2(CC(C4CCCOC4)O3)N=C(N)N(C)O2)c1 (centres unmarked) [Compound 91] |  |
| 500 to 1000 | Cc1ccc(C)c(-c2ccc3c(c2)C2(CC4(CCCOC4)O3)N=C(N)N(C)C2=O)c1 (centres unmarked) [Compound 364] |  |
| 1000 to 5000 | CC(C)=CC(CCO)C1CC2(N=C(N)N(C)O2)c2cc(-c3cccc(Cl)c3)ccc2O1 (centres unmarked) [Compound 412] |  |
| 5000 to 10000 | CN1OC2(CC3(CCCC4CCCCC43)Oc3ccc(-c4cccc(C#N)c4)cc32)N=C1N (centres unmarked) [Compound 443] |  |
| 100 to 500 | CC1CCC2(C1)CC1(N=C(N)N(C)C1=O)c1cc(-c3cccc(C#N)c3)ccc1O2 (centres unmarked) [Compound 74] |  |
| 500 to 1000 | CN1C(=O)C2(CC3(CCCCCC3)Oc3ccc(-c4cccc(C#N)c4)cc32)N=C1N (centres unmarked) [Compound 78] |  |
| 1000 to 5000 | CC(=O)N1CCC2(CC1)CC1(N=C(N)N(C)O1)c1cc(-c3cccc(C#N)c3)ccc1O2 (centres unmarked) [Compound 409, 3-(spiro[spiro(chroman-2,4′-(1-acetylpiperidine))-4,5′-(3-amino-2-methyl-2H-[1,2,4]oxadiazole)]-6-yl)benzonitrile] |  |
| 1000 to 5000 | CN1C(=O)C2(CC(c3cccc(F)c3)Oc3ccc(Br)cc32)N=C1N (centres unmarked) [Compound 38, 2′-amino-6-bromo-2-(3-fluorophenyl)-1′-methylspiro[chroman-4,4′-imidazol]-5′(1′H)-one] |  |
| 1000 to 5000 | Cc1ccc(F)cc1-c1ccc2c(c1)[C@]1(C[C@@]3(CCCOC3)O2)N=C(N)N(C)C1=O [Compound 385] |  |
| 5000 to 10000 | CN1C(=O)C2(CC3(CCCOC3)Oc3ccc(-c4cccc(-n5ccnc5)n4)cc32)N=C1N (centres unmarked) [Compound 439] |  |
| 1000 to 5000 | CN1OC2(CC(c3ccccc3)Oc3ccc(-c4cccnc4)cc32)N=C1N (centres unmarked) [Compound 102, 2′-methyl-2-phenyl-6-(pyridin-3-yl)-2′H-spiro[chroman-4,5′-[1,2,4]oxadiazol]-3′-amine] |  |
| 100 to 500 | CC1CC(C2CC3(N=C(N)N(C)O3)c3cc(-c4cccc(C#N)c4)ccc3O2)CC(C)O1 (centres unmarked) [Compound 319] |  |
| 1 to 100 | CN1C(=O)C2(CC3(CCCOC3)Oc3ccc(-c4cccc(C#N)c4)cc32)N=C1N (centres unmarked) [Compound 72] |  |
| 10000 to 50000 | COc1ccc(-c2ccc3c(c2)[C@]2(C[C@@]4(CCCOC4)O3)N=C(N)N(C)C2=O)cc1OC [Compound 458] |  |
